Data on five compounds can be found in US11691949B2, “Quinoline sulfonamide compounds and their use as antibacterial agents” (OTAGO INNOVATION LIMITED, priority 2017, dated 2023).

In brackets after ≈: the same amount, converted by molar mass. Structures can show the parent of a compound that is named as a salt. Where two headings read alike, the source gives them in different places. Where only a bound is given, the exact number is not on record here.

What all share (assay type): cell-based
Test [1] relates to S. uberis ATCC 19436. Nature of the test: MIC by broth microdilution, S. uberis. Particulars: Streptococcus uberis. The method in brief: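 This broth microdilution assay used S. uberis ATCC 19436 in Todd Hewitt Broth, with zinc sulphate heptahydrate added where required to a final 50 μM. Inhibitor concentration ranges came from two-fold serial dilutions in 96-well flat bottom plates at 200 μl. Approximately 5×10^5 cfu/mL cells were incubated for 24 h at 37° C. and 200 rpm. Wells were then read at OD600 on a Varioskan Flash reader.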
On the technique in general: Dilution methods test growth across graded concentrations, often in twofold steps.

Test [2] has as its system S. aureus ATCC 6538. As to the kind of experiment: MIC by broth microdilution, S. aureus. Particulars: Staphylococcus aureus. In a few lines: (§1)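 Media: TSB or CAMHB for S. aureus, LB or CAMHB for E. coli, with zinc sulphate to 50 μM final where required. Cells at ~5×10^5 cfu/mL met two-fold compound series; growth was scored by OD600 after 24 h shaking at 37° C.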
The test system of test [3] is E. coli ATCC 10596. Nature of the test: MIC by broth microdilution, E. coli. Particulars: Escherichia coli. The method in brief:
as §1

The test system of test [4] is S. uberis ATCC 19436. Nature of the test: MBC by Miles-Misra drop-plate method, S. uberis. The note with it: Streptococcus uberis. Here is the method:
(§2) Antibacterial susceptibility testing was performed in triplicate (biological) by measuring minimum inhibitory concentrations (MICs) by broth microdilution in 96-well flat bottom microtiter plates (ThermoFisher Scientific, New Zealand). S. uberis ATCC 19436, S. aureus ATCC 6538, or E. coli ATCC 10596 cells grown overnight were diluted to an OD600 of approximately 0.025, so that the final concentration of cells in the MIC assay was approximately 5×10^5 cfu/mL in media as follows: S. uberis; Todd Hewitt Broth (THB), S. aureus; Tryptic Soy Broth (TSB) and Cation Adjusted Muller Hinton Broth (CAMHB), and E. coli; Lysogeny Borth (LB) and CAMHB, before being dispensed into microtiter wells. As required additional sterile Zinc Sulphate (Heptahydrate) was supplemented into the media, so the final concentration was 50 μM. Test compounds were added to starting wells and two-fold serial dilutions were undertaken to generate a range of inhibitor concentrations at a final volume of 200 μl. Media and test compound-free (untreated) controls were included in each microtiter plate in triplicate. After 24 h incubation at 37° C. and 200 rpm, the OD600 of wells were read using a Varioskan Flash plate reader (ThermoFisher Scientific, New Zealand). The MIC was reported as the lowest concentration of the test compound for which no growth occurred, as determined by OD600 readings. The minimum bactericidal concentration (MBC) was determined using the Miles-Misra drop-plate method to measure the viability of cells in response to test compound challenge.

The subject of test [5] is S. aureus ATCC 6538. As to the kind of experiment: MBC by Miles-Misra drop-plate method, S. aureus. Particulars: Staphylococcus aureus. How it is done:
as §2

For test [6], the system named is E. coli ATCC 10536. As to the kind of experiment: MBC by Miles-Misra drop-plate method, E. coli. Particulars: Escherichia coli. Here is the method: as §2
[7] abbreviates: ATCC19436, read-out: S. uberis ATCC 19436 MIC, No Zinc.
The mark [8] stands for this setting: ATCC19436, read-out: S. uberis ATCC 19436 MIC, Zinc (50 μM).
[9] abbreviates: ATCC6538, read-out: S. aureus ATCC 6538 MIC, No Zinc.
Where [10] appears, read: ATCC6538, read-out: S. aureus ATCC 6538 MIC, Zinc (50 μM).
Setting [11] is: ATCC 10536 / ATCC 10596, read-out: E. coli ATCC 10536 MIC, No Zinc.
[12] abbreviates: ATCC 10536 / ATCC 10596, read-out: E. coli ATCC 10536 MIC, Zinc (50 μM).
The mark [13] stands for this setting: ATCC19436, read-out: S. uberis ATCC 19436 MBC, No Zinc.
[14] abbreviates: ATCC19436, read-out: S. uberis ATCC 19436 MBC, Zinc (50 μM).
Setting [15] is: ATCC6538, read-out: S. aureus ATCC 6538 MBC, No Zinc.
The mark [16] stands for this setting: ATCC6538, read-out: S. aureus ATCC 6538 MBC, Zinc (50 μM).
Setting [17] is: ATCC10536, read-out: E. coli ATCC 10536 MBC, No Zinc.
Where [18] appears, read: ATCC10536, read-out: E. coli ATCC 10536 MBC, Zinc (50 μM).
[19] abbreviates: ATCC19436, No Zinc, read-out: S. uberis ATCC 19436 MIC.
Where [20] appears, read: ATCC19436, Zinc (50 μM), read-out: S. uberis ATCC 19436 MIC.
The mark [21] stands for this setting: ATCC6538, No Zinc, read-out: S. aureus ATCC 6538 MIC.
Where [22] appears, read: ATCC6538, Zinc (50 μM), read-out: S. aureus ATCC 6538 MIC.
Where [23] appears, read: ATCC 10536 / ATCC 10596, No Zinc, read-out: E. coli ATCC 10536 MIC.
Where [24] appears, read: ATCC 10536 / ATCC 10596, Zinc (50 μM), read-out: E. coli ATCC 10536 MIC.
[25] abbreviates: ATCC19436, No Zinc, read-out: S. uberis ATCC 19436 MBC.
Where [26] appears, read: ATCC19436, Zinc (50 μM), read-out: S. uberis ATCC 19436 MBC.
[27] abbreviates: ATCC6538, No Zinc, read-out: S. aureus ATCC 6538 MBC.
The mark [28] stands for this setting: ATCC6538, Zinc (50 μM), read-out: S. aureus ATCC 6538 MBC.
[29] abbreviates: ATCC10536, No Zinc, read-out: E. coli ATCC 10536 MBC.
The mark [30] stands for this setting: ATCC10536, Zinc (50 μM), read-out: E. coli ATCC 10536 MBC.

`CN1CCN(CCCNCc2ccc3cccc(NS(=O)(=O)c4ccc(C(F)(F)F)cc4)c3n2)CC1` [ZDR117, N-(2-(((3-(4-Methylpiperazin-1-yl)propyl)amino)methyl)quinolin-8-yl)-4-(trifluoromethyl)benzenesulfonamide di-trifluoroacetate]: the MIC in test [1] (setting [7]) was 16 µg/mL (≈ 30.7 µM); in test [1] (setting [8]) it was 4 µg/mL (≈ 7.67 µM); in test [2] (setting [9]), 64 µg/mL (≈ 123 µM); in test [2] (setting [10]), 64 µg/mL (≈ 123 µM); in test [3] (setting [11]) it was 128 µg/mL (≈ 245 µM); in test [3] (setting [12]), 32 µg/mL (≈ 61.3 µM). Also, the MBC turned out to be 16 µg/mL (≈ 30.7 µM) in test [4] (setting [13]); 4 µg/mL (≈ 7.67 µM) in test [4] (setting [14]); 64 µg/mL (≈ 123 µM) in test [5] (setting [15]); 64 µg/mL (≈ 123 µM) in test [5] (setting [16]); 256 µg/mL (≈ 491 µM) in test [6] (setting [17]); 64 µg/mL (≈ 123 µM) in test [6] (setting [18]).

On to `CN(C)CCCNC(=O)c1ccc2cccc(NS(=O)(=O)c3ccc(C(F)(F)F)cc3)c2n1` [ZDR224, N-(3-(Dimethylamino)propyl)-8-((4-(trifluoromethyl)phenyl)sulfonamido)quinoline-2-carboxamide trifluoroacetate], for which the MIC in test [1] (setting [7]) worked out at 64 µg/mL; in test [1] (setting [8]), 16 µg/mL; in test [2] (setting [9]), 128 µg/mL; in test [2] (setting [10]) it was 32 µg/mL; in test [3] (setting [11]) it was 256 µg/mL; in test [3] (setting [12]), 256 µg/mL. Moreover, the MBC was 64 µg/mL in test [4] (setting [13]); 8 µg/mL in test [4] (setting [14]); 128 µg/mL in test [5] (setting [15]); 32 µg/mL in test [5] (setting [16]); above 256 µg/mL in test [6] (setting [17]); 256 µg/mL in test [6] (setting [18]).

On to `O=S(=O)(Nc1cccc2ccc(CNc3cc(Cl)cc(Cl)c3O)nc12)c1ccc(C(F)(F)F)cc1` [ZDR167, N-(2-(((3,5-Dichloro-2-hydroxyphenyl)amino)methyl)quinolin-8-yl)-4-(trifluoromethyl)benzenesulfonamide], for which the MIC in test [1] (setting [19]) is 2 µg/mL (≈ 3.69 µM); in test [1] (setting [20]), 0.5 µg/mL (≈ 0.922 µM); in test [2] (setting [21]) it was 2 µg/mL (≈ 3.69 µM); in test [2] (setting [22]) it was 2 µg/mL (≈ 3.69 µM); in test [3] (setting [23]), above 256 µg/mL; in test [3] (setting [24]), above 256 µg/mL. The MBC in test [4] (setting [25]) is 8 µg/mL (≈ 14.8 µM); in test [4] (setting [26]), 0.5 µg/mL (≈ 0.922 µM); in test [5] (setting [27]) it was 8 µg/mL (≈ 14.8 µM); in test [5] (setting [28]), 8 µg/mL (≈ 14.8 µM); in test [6] (setting [29]), above 256 µg/mL; in test [6] (setting [30]) it was above 256 µg/mL.

Regarding `N/N=C/c1ccc2cccc(NS(=O)(=O)c3ccc(C(F)(F)F)cc3)c2n1` [ZDR127, (E)-N-(2-(Hydrazineylidenemethyl)quinolin-8-yl)-4-(trifluoromethyl)benzenesulfonamide], the MIC in test [1] (setting [19]) was above 256 µg/mL; in test [1] (setting [20]), 1 µg/mL (≈ 2.54 µM); in test [2] (setting [21]), 16 µg/mL (≈ 40.6 µM); in test [2] (setting [22]), 16 µg/mL (≈ 40.6 µM); in test [3] (setting [23]), above 256 µg/mL; in test [3] (setting [24]), above 256 µg/mL. Moreover, the MBC was above 256 µg/mL in test [4] (setting [25]); 2 µg/mL (≈ 5.07 µM) in test [4] (setting [26]); above 256 µg/mL in test [5] (setting [27]); above 256 µg/mL in test [5] (setting [28]); above 256 µg/mL in test [6] (setting [29]); above 256 µg/mL in test [6] (setting [30]).

For the compound `O=S(=O)(Nc1cccc2ccc(CNCCc3ccccn3)nc12)c1ccc(C(F)(F)F)cc1` [ZDR095, N-(2-(((2-(Pyridin-2-yl)ethyl)amino)methyl)quinolin-8-yl)-4-(trifluoromethyl)benzenesulfonamide], the MIC is above 256 µg/mL in test [1] (setting [19]); 0.125 µg/mL (≈ 0.257 µM) in test [1] (setting [20]); 64 µg/mL (≈ 132 µM) in test [2] (setting [21]); 8 µg/mL (≈ 16.4 µM) in test [2] (setting [22]); 128 µg/mL (≈ 263 µM) in test [3] (setting [23]); above 256 µg/mL in test [3] (setting [24]). In addition, the MBC in test [4] (setting [25]) was above 256 µg/mL; in test [4] (setting [26]), 1 µg/mL (≈ 2.06 µM); in test [5] (setting [27]), above 128 µg/mL; in test [5] (setting [28]), above 256 µg/mL; in test [6] (setting [29]), 128 µg/mL (≈ 263 µM); in test [6] (setting [30]) it was 256 µg/mL (≈ 526 µM).

A word on the MIC: it is the lowest concentration found to suppress growth. Usually MBC stands for the smallest concentration meeting the test's criterion for killing.
